{"source": "ChEMBL document CHEMBL4811295", "about": "“The ester derivatives obtained by C-ring modification of podophyllotoxin induce apoptosis and inhibited proliferation in PC-3M cells via down-regulation of PI3K/Akt signaling pathway” (Bioorg Med Chem Lett, 2021)", "key": {"MCF7": {"test_system": "MCF7", "assay": "Cytotoxicity in human MCF7 cells assessed as inhibition of cell proliferation measured by CCK-8 assay", "type": "functional, cell-based"}, "PC-3M [1]": {"test_system": "PC-3M", "assay": "Induction of apoptosis in human PC-3M cells assessed as late apoptotic cells at 1 nM measured after 48 hrs by Annexin V/PI staining based flow cytometry method (reference value: 2.88%)", "type": "functional"}, "PC-3M [2]": {"test_system": "PC-3M", "assay": "Induction of apoptosis in human PC-3M cells assessed as necrotic cells at 5 nM measured after 48 hrs by Annexin V/PI staining based flow cytometry method (reference value: 0.25%)", "type": "functional"}, "PC-3M [3]": {"test_system": "PC-3M", "assay": "Induction of apoptosis in human PC-3M cells assessed as early apoptotic cells at 1 nM measured after 48 hrs by Annexin V/PI staining based flow cytometry method (reference value: 1.25%)", "type": "functional"}, "PC-3M [4]": {"test_system": "PC-3M", "assay": "Induction of apoptosis in human PC-3M cells assessed by apoptotic changes in cells at 1 uM measured after 48 hrs by DAPI staining based microscopic method relative to PPT", "type": "functional, cell-based"}, "PC-3M [5]": {"test_system": "PC-3M", "assay": "Induction of apoptosis in human PC-3M cells assessed as viable cells at 5 nM measured after 48 hrs by Annexin V/PI staining based flow cytometry method (reference value: 95.6%)", "type": "functional", "conditions": "read-out: Activity"}, "PC-3M [6]": {"test_system": "PC-3M", "assay": "Induction of apoptosis in human PC-3M cells assessed by formation of apoptotic bodies at 10 nM measured after 48 hrs by DAPI staining based microscopic method", "type": "functional, cell-based"}, "PC-3M [7]": {"test_system": "PC-3M", "assay": "Induction of apoptosis in human PC-3M cells assessed by formation of chromatin fragments at 10 nM measured after 48 hrs by DAPI staining based microscopic method", "type": "functional, cell-based"}, "PC-3M [8]": {"test_system": "PC-3M", "assay": "Induction of apoptosis in human PC-3M cells assessed as early apoptotic cells at 5 nM measured after 48 hrs by Annexin V/PI staining based flow cytometry method (reference value: 1.25%)", "type": "functional"}, "PC-3M [9]": {"test_system": "PC-3M", "assay": "Induction of apoptosis in human PC-3M cells assessed by irregular nucleus at 10 nM measured after 48 hrs by DAPI staining based microscopic method", "type": "functional, cell-based"}, "PC-3M [10]": {"test_system": "PC-3M", "assay": "Induction of apoptosis in human PC-3M cells assessed by broken nucleus at 10 nM measured after 48 hrs by DAPI staining based microscopic method", "type": "functional, cell-based"}, "PC-3M [11]": {"test_system": "PC-3M", "assay": "Induction of apoptosis in human PC-3M cells assessed as late apoptotic cells at 10 nM measured after 48 hrs by Annexin V/PI staining based flow cytometry method (reference value: 2.88%)", "type": "functional"}, "PC-3M [12]": {"test_system": "PC-3M", "assay": "Induction of apoptosis in human PC-3M cells assessed as viable cells at 10 nM measured after 48 hrs by Annexin V/PI staining based flow cytometry method (reference value: 95.6%)", "type": "functional", "conditions": "read-out: Activity"}, "PC-3M [13]": {"test_system": "PC-3M", "assay": "Cytotoxicity in human PC-3M cells assessed as inhibition of cell proliferation measured by CCK-8 assay", "type": "functional, cell-based"}, "HepG2": {"test_system": "HepG2", "assay": "Cytotoxicity in human HepG2 cells assessed as inhibition of cell proliferation measured by CCK-8 assay", "type": "functional, cell-based"}, "PC-3M [14]": {"test_system": "PC-3M", "assay": "Anti-migration activity in human PC-3M cells measured after 24 hrs by microscopy based wound scratch method", "type": "functional, cell-based", "conditions": "dose 1-10 nM"}, "PC-3M [15]": {"test_system": "PC-3M", "assay": "Induction of apoptosis in human PC-3M cells assessed as late apoptotic cells at 5 nM measured after 48 hrs by Annexin V/PI staining based flow cytometry method (reference value: 2.88%)", "type": "functional"}, "A549": {"test_system": "A549", "assay": "Cytotoxicity in human A549 cells assessed as inhibition of cell proliferation measured by CCK-8 assay", "type": "functional, cell-based"}, "PC-3M [16]": {"test_system": "PC-3M", "assay": "Antiproliferative activity against human PC-3M cells assessed as inhibition of cell proliferation measured after 9 days by Crystal violet staining based colony formation assay", "type": "functional", "conditions": "dose 5-10 nM, time 9.0 day"}, "PC-3M [17]": {"test_system": "PC-3M", "assay": "Induction of apoptosis in human PC-3M cells assessed as increase of cleaved caspase-3 expression at 1 to 10 nM measured by western blot assay", "type": "functional, cell-based", "conditions": "dose 1-10 nM"}, "PC-3M [18]": {"test_system": "PC-3M", "assay": "Induction of apoptosis in human PC-3M cells assessed as viable cells at 1 nM measured after 48 hrs by Annexin V/PI staining based flow cytometry method (reference value: 95.6%)", "type": "functional", "conditions": "read-out: Activity"}, "PC-3M [19]": {"test_system": "PC-3M", "assay": "Inhibition of PI3K in human PC-3M cells assessed as reduction of phosphorylated PI3K expression at 1 to 10 nM measured by western blot assay", "type": "cell-based", "conditions": "dose 1-10 nM"}, "PC-3M [20]": {"test_system": "PC-3M", "assay": "Induction of apoptosis in human PC-3M cells assessed as necrotic cells at 1 nM measured after 48 hrs by Annexin V/PI staining based flow cytometry method (reference value: 0.25%)", "type": "functional"}, "PC-3M [21]": {"test_system": "PC-3M", "assay": "Induction of apoptosis in human PC-3M cells assessed as necrotic cells at 10 nM measured after 48 hrs by Annexin V/PI staining based flow cytometry method (reference value: 0.25%)", "type": "functional"}, "[22]": {"target": "RAC-alpha serine/threonine-protein kinase (Homo sapiens) (UniProt P31749)", "sequence (P31749 whole entry)": "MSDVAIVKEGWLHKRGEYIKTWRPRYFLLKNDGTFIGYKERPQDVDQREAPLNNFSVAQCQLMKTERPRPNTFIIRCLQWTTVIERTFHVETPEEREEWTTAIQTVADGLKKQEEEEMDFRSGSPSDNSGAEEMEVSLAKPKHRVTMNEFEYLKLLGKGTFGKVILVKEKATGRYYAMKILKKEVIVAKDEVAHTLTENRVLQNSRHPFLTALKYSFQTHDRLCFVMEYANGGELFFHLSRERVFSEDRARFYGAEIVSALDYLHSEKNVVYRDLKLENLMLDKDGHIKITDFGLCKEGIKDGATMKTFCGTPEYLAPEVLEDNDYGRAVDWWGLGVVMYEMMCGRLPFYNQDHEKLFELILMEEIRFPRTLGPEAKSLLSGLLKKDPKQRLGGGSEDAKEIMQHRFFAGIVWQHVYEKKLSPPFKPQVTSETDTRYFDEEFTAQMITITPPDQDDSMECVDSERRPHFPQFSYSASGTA", "assay": "Inhibition of Akt in human PC-3M cells assessed as reduction of […] expression at 1 to 10 nM measured by western blot assay", "type": "cell-based", "conditions": "dose 1-10 nM"}, "PC-3M [23]": {"test_system": "PC-3M", "assay": "Induction of apoptosis in human PC-3M cells assessed as increase of Bax expression at 1 to 10 nM measured by western blot assay", "type": "functional, cell-based", "conditions": "dose 1-10 nM"}, "PC-3M [24]": {"test_system": "PC-3M", "assay": "Induction of apoptosis in human PC-3M cells assessed as early apoptotic cells at 10 nM measured after 48 hrs by Annexin V/PI staining based flow cytometry method (reference value: 1.25%)", "type": "functional"}, "HMEC": {"test_system": "HMEC", "assay": "Cytotoxicity in human HMEC cells assessed as inhibition of cell proliferation measured by CCK-8 assay", "type": "functional, cell-based"}, "PC-3M [25]": {"test_system": "PC-3M", "assay": "Induction of apoptosis in human PC-3M cells assessed as decrease of Bcl-2 expression at 1 to 10 nM measured by western blot assay", "type": "functional, cell-based", "conditions": "dose 1-10 nM"}}, "note": "The source made the active and inactive calls. The calls are words filed in the database; no cut-off is given here."}
{"smiles": "COc1cc([C@@H]2c3cc4c(cc3[C@H](OC(=O)CNC(=O)OC(C)(C)C)[C@H]3COC(=O)[C@H]23)OCO4)cc(OC)c1OC", "values": [{"measurement": "IC50", "setting": "MCF7", "value": 144000, "unit": "nM"}, {"measurement": "Activity", "setting": "PC-3M [1]", "value": 5.53, "unit": "%"}, {"measurement": "Activity", "setting": "PC-3M [2]", "value": 0.11, "unit": "%"}, {"measurement": "Activity", "setting": "PC-3M [3]", "value": 1.86, "unit": "%"}, {"measurement": "Activity", "setting": "PC-3M [4]", "value": "Active"}, {"measurement": "viability at 0.005 µM", "setting": "PC-3M [5]", "value": 83.4, "unit": "%"}, {"measurement": "Activity", "setting": "PC-3M [6]", "value": "Dose-Dependent Effect"}, {"measurement": "Activity", "setting": "PC-3M [7]", "value": "Dose-Dependent Effect"}, {"measurement": "Activity", "setting": "PC-3M [8]", "value": 3.74, "unit": "%"}, {"measurement": "Activity", "setting": "PC-3M [9]", "value": "Dose-Dependent Effect"}, {"measurement": "Activity", "setting": "PC-3M [10]", "value": "Dose-Dependent Effect"}, {"measurement": "Activity", "setting": "PC-3M [11]", "value": 29.9, "unit": "%"}, {"measurement": "viability at 0.01 µM", "setting": "PC-3M [12]", "value": 64.4, "unit": "%"}, {"measurement": "IC50", "setting": "PC-3M [13]", "value": 1.28, "unit": "nM"}, {"measurement": "IC50", "setting": "HepG2", "value": 50700, "unit": "nM"}, {"measurement": "Activity", "setting": "PC-3M [14]", "value": "Dose-Dependent Effect"}, {"measurement": "Activity", "setting": "PC-3M [15]", "value": 12.7, "unit": "%"}, {"measurement": "IC50", "setting": "A549", "value": 9.54, "unit": "nM"}, {"measurement": "Activity", "setting": "PC-3M [16]", "value": "Dose-Dependent Effect"}, {"measurement": "Activity", "setting": "PC-3M [17]", "value": "Dose-Dependent Effect"}, {"measurement": "viability at 0.001 µM", "setting": "PC-3M [18]", "value": 92.5, "unit": "%"}, {"measurement": "inhibition", "setting": "PC-3M [19]", "value": "Active"}, {"measurement": "Activity", "setting": "PC-3M [20]", "value": 0.14, "unit": "%"}, {"measurement": "Activity", "setting": "PC-3M [21]", "value": 0.21, "unit": "%"}, {"measurement": "inhibition", "setting": "[22]", "value": "Active"}, {"measurement": "Activity", "setting": "PC-3M [23]", "value": "Dose-Dependent Effect"}, {"measurement": "Activity", "setting": "PC-3M [24]", "value": 5.41, "unit": "%"}, {"measurement": "IC50", "setting": "HMEC", "value": 768, "unit": "nM"}, {"measurement": "Activity", "setting": "PC-3M [25]", "value": "Dose-Dependent Effect"}]}
